In assay [1] the target is D(2) dopamine receptor (Rattus norvegicus) (UniProt P61169). The experiment in a line: Displacement of spiperone from dopamine receptor D2 of rat brain membrane.
The target in assay [2] is Sigma non-opioid intracellular receptor 1 (Rattus norvegicus) (UniProt Q9R0C9). Description: Displacement of (+)-3PPP from sigma receptor of rat brain membrane.
Sigma non-opioid intracellular receptor 1 (Rattus norvegicus), sequence (Q9R0C9 whole entry): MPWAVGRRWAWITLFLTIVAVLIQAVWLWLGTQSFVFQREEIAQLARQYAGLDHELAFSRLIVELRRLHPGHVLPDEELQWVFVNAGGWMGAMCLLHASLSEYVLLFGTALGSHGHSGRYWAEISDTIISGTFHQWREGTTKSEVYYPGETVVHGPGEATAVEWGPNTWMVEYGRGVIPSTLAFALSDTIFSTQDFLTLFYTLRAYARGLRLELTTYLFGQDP

D(2) dopamine receptor (Rattus norvegicus), sequence (P61169 whole entry): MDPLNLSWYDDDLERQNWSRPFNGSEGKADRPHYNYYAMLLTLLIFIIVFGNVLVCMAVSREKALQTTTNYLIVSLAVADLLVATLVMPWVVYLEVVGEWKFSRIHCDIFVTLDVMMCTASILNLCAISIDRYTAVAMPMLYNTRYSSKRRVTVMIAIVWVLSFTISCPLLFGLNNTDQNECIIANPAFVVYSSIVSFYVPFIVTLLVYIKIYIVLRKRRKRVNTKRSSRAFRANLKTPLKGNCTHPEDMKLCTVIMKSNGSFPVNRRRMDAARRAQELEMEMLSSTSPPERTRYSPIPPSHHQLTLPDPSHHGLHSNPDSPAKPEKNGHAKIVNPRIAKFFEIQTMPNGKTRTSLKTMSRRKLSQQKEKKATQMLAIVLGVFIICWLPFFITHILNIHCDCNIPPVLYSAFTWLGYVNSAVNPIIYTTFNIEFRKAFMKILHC

Consider `CCc1ccc(N2CCC[C@@H](c3cccc(O)c3)C2)cc1`, for which the Log IC50 amounted to 1.36 µM in assay [1] and 1.8 µM in assay [2].
For the compound `CCCCN1CCC[C@@H](c2cccc(O)c2)C1`, the Log IC50 in assay [1] amounted to 0.56 µM; in assay [2], 1.51 µM.
For the compound `CCCCN1CCC[C@H](c2cccc(O)c2)C1`, the results for the Log IC50 in assay [1] and in assay [2] were 0.43 µM and 2.05 µM, respectively.
For `CN1CCC[C@H](c2cccc(O)c2)C1`, the Log IC50 in assay [1] was found to be 0.61 µM; in assay [2] it was 0.43 µM.
As for `CCCN1CCC[C@H](c2cccc(O)c2)C1`, in assay [2], the Log IC50 was 1.52 µM.
In the case of `Oc1cccc([C@@H]2CCCNC2)c1`, the figures for the Log IC50 in assay [1] and in assay [2] were 0.24 µM and 1.19 µM, respectively.
In the case of `CC(C)N1CCC[C@@H](c2cccc(O)c2)C1`, the Log IC50 was determined as 0.45 µM in assay [1] and 0.68 µM in assay [2].
For the compound `CC(C)N1CCC[C@H](c2cccc(O)c2)C1`, the Log IC50 in assay [1] was 1.08 µM; in assay [2] it was 0.61 µM.
Turning to `CCc1ccc(N2CCC[C@H](c3cccc(O)c3)C2)cc1`, the Log IC50 in assay [1] was determined as 0.09 µM; in assay [2] it was 2.1 µM.
Turning to `Oc1cccc([C@H]2CCCNC2)c1`, the figures for the Log IC50 in assay [1] and in assay [2] were 0.36 µM and 0.66 µM, respectively.
For `CCCN1CCC[C@@H](c2cccc(O)c2)C1`, the Log IC50 in assay [2] turned out to be 0.81 µM.

For the origin of these results see ChEMBL document CHEMBL1127535, “Molecular similarity, quantitative chirality, and QSAR for chiral drugs” (J Med Chem, 1994).
